Experiments:
PD-L1 gene expression = PD-L1 gene expression by RT-qPCR in MCF-7; type: cell-based, human; conditions: MCF-7, 100 µM, 48 h, control = 100
Method: We also studied the effect of compounds 3, 5, and 7 on both c-Myc and PD-L1 gene expression by RT-qPCR. For this study, we treated MCF-7 cells with 100 µM of the abovementioned compounds, and DMSO was used as a negative control and BMS-8 as a reference compound. After 48 h, cells were lysated, and after the extraction of their mRNA, a RT-pPCR assay was performed as described in the Experimental section.
MCF-7 cells at 70–80% confluence were collected, and 1.5 × 10^5 cells were placed in a six-well plate in 1.5 mL of medium. After 24h, cells were incubated with the corresponding compounds for 48 h. Cells were collected, and the total cellular RNA from MCF-7 cells was isolated using the Ambion RNA extraction kit according to the manufacturer’s instructions. The cDNA was synthesized by MMLV-RT with […] of extracted RNA and oligo(dT)15 according to the manufacturer’s instructions. Genes were amplified by a thermal cycler and StepOnePlus™ TaqMan® probes. TaqMan® Gene Expression Master Mix Fast containing the appropriate buffer for the amplification conditions, dNTPs, thermostable DNA polymerase enzymes, and a passive reference probe was used. To amplify each of the genes, the predesigned primers sold by Life Technologies TaqMan® Gene Expression Assays, Hs99999903-m1 (β-actin), Hs00153408-m1 (c-Myc), and Hs00204257-m1, (PD-L1) were used.

PD-L1 = PD-L1 (Homo sapiens, UniProt Q9NZQ7); test: Total PD-L1 relative quantification by flow cytometry in cancer cell lines; type: cell-based; parameters: Alexa Fluor® 647 Rabbit monoclonal Anti-PD-L1 (ab215251); endogenous in cells; host or cells: HT-29
Sequence of PD-L1 (Q9NZQ7 19-290): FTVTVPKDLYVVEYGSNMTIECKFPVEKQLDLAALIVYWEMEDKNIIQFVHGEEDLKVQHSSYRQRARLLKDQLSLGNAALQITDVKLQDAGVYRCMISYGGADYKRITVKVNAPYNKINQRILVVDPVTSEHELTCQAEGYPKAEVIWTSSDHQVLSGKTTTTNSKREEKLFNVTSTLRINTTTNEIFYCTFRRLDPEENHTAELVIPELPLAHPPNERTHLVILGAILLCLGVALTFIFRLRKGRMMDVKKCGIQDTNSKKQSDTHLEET

c-Myc = test: Total c-Myc relative quantification by flow cytometry in cancer cell lines; type: cell-based, human

COc1ccc(C(OCCc2ccc(CCn3cc(-c4cccc(Br)c4)nn3)cc2)(c2ccccc2)c2ccc(OC)cc2)cc1 [Compound 5, 1-(4-(2-(bis(4-methoxyphenyl)(phenyl)methoxy)ethyl)phenethyl)-4-(3-bromophenyl)-1H-1,2,3-triazole]
% PD-L1 gene expression (PD-L1 gene expression): 21 ± 8%

COc1ccc(C(OCCc2ccc(CCn3cc(-c4ccccc4Br)nn3)cc2)(c2ccccc2)c2ccc(OC)cc2)cc1 [Compound 7, 1-(4-(2-(bis(4-methoxyphenyl)(phenyl)methoxy)ethyl)phenethyl)-4-(2-bromophenyl)-1H-1,2,3-triazole]
% PD-L1 gene expression (PD-L1 gene expression): 36 ± 9%

COc1ccc(C(OCCc2ccc(CCn3cc(-c4ccc(Br)cc4)nn3)cc2)(c2ccccc2)c2ccc(OC)cc2)cc1 [Compound 3, 1-(4-(2-(bis(4-methoxyphenyl)(phenyl)methoxy)ethyl)phenethyl)-4-(4-bromophenyl)-1H-1,2,3-triazole]
remaining activity at 10 µM (PD-L1; 24 h, HT-29, dose 10 µM): 101 ± 2%
remaining activity at 25 µM (PD-L1; 24 h, HT-29, dose 25 µM): 111 ± 4%
remaining activity at 50 µM (PD-L1; 24 h, HT-29, dose 50 µM): 90 ± 3%
remaining activity at 10 µM (PD-L1; MCF7, 24 h, MCF-7, dose 10 µM): 52 ± 2%
remaining activity at 25 µM (PD-L1; MCF7, 24 h, MCF-7, dose 25 µM): 58 ± 3%
remaining activity at 50 µM (PD-L1; MCF7, 24 h, MCF-7, dose 50 µM): 69 ± 4%
% PD-L1 gene expression (PD-L1 gene expression): 33 ± 10%
% c-Myc (c-Myc; HT-29, dose 10 µM): 109 ± 9%
% c-Myc (c-Myc; HT-29, dose 25 µM): 100 ± 3%
% c-Myc (c-Myc; HT-29, dose 50 µM): 88 ± 5%
% c-Myc (c-Myc; MCF-7, dose 10 µM): 56 ± 5%
% c-Myc (c-Myc; MCF-7, dose 25 µM): 62 ± 5%
% c-Myc (c-Myc; MCF-7, dose 50 µM): 75 ± 9%

Cc1c(COc2ccc(CN3CCCCC3C(=O)O)cc2Br)cccc1-c1ccccc1 (stereo not shown) [BMS-8, reference compound]
% PD-L1 gene expression (PD-L1 gene expression): 31 ± 12%
